# In PubChem BioAssay AID1645871:
# Conditions: pampa; pH 5.0; 30.0 min; 50.0 µM
row,Structure (SMILES),Papp [×10⁻⁶ cm/s]
1,COc1cccc(Cn2c(=O)n(-c3cccc(Cl)c3C)c(=O)c3c4c(sc32)CN(C(C)=O)CC4)c1,> 1000
2,CN(Cc1ccc(/C=C/C(=O)NO)cc1)CC12CC3CC(CC(C3)C1)C2,108
3,COCC(C)NCc1cc2ccc(OC)cc2nc1N1CCN(c2ccc(F)cc2)CC1 (stereo not drawn),576
4,O=C1CCc2cc(S(=O)(=O)Nc3ccc(F)c(Cl)c3)ccc2N1,663
5,O=C(Nc1ccc(F)cc1F)c1cc(-c2ccc[nH]2)n[nH]1,166
6,CC(=O)Nc1ccc(CN2CCc3nc(C(C)C)nc(-c4ccc(Cl)cc4)c3CC2)cc1,476
7,CCOC(=O)C1=C(CN(CC)Cc2ccccc2)NC(=O)NC1c1ccc(OC(C)C)cc1 (stereo not drawn),> 1000
8,CCOC(=O)Nc1ccc(NCc2ccc(F)cc2)nc1N,142
9,Cc1noc(C)c1-c1cc(-c2ccc3c(c2)C(=O)NC3)cn2cncc12,64.5
10,NC(=O)Nc1cc(-c2ccc(CN3CCOCC3)cc2)sc1C(N)=O,1.19
11,CCc1cccc(NC(=O)c2cc(-c3ccc[nH]3)n[nH]2)c1,90.2
12,O=S(=O)(c1ccccc1)c1nc(-c2ccc(F)cc2)oc1N1CCCCCC1,> 1000
13,CC(=O)c1c(C)oc2ccc(N(C(=O)Oc3ccccc3)S(=O)(=O)c3ccccc3)cc12,> 1000
14,Cc1cc(Br)ccc1NC(=O)C(NS(=O)(=O)c1cccs1)c1ccccc1 (stereo not drawn),79.4
15,COc1c(O)cc2c(c1OC)-c1ccc(SC)c(=O)cc1C(NC(C)=O)CC2 (stereo not drawn),20.7
16,CCOc1ccccc1C(=O)Nc1ccncc1C(=O)Nc1cccc(S(=O)(=O)C(F)(F)F)c1,139
17,Cc1onc(-c2ccc(F)cc2)c1COc1ccc(C(=O)N2CCS(=O)(=O)CC2)cn1,291
18,COc1ccc(Cn2c(C(=O)O)c(CNCc3cccc(OC)c3)c3ccc(C)cc32)cc1,931
19,C=C1[C@@H](C)C2[C@H](Cc3ccccc3)NC(=O)[C@@]23C(/C=C/C[C@H](C)C[C@@](C)(O)/C=C/[C@@H]3OC(C)=O)[C@@H]1O (stereo partly drawn),55
20,NC(=O)N1CCCC(C(=O)N2CCCN(c3ccc(F)cc3)CC2)C1 (stereo not drawn),96.2
21,O=C(c1cc2ccccc2[nH]1)N1CCc2c(n(Cc3cccnc3)n(CCc3ccccc3)c2=O)C1,229
22,CCOc1ccc(S(=O)(=O)NCc2cccnc2)cc1NC(=O)c1ccccc1F,278
23,N#Cc1ccc(-c2ccc(CNc3ccc(C4CCNCC4)cc3)o2)cc1,236

row,Structure (SMILES),Papp [×10⁻⁶ cm/s]
1,COC(=O)[C@@H]1C[C@H](OC(C)=O)C(=O)[C@H]2[C@@]1(C)CC[C@H]1C(=O)O[C@H](c3ccoc3)C[C@]21C,381
2,Cc1ccc(CN2CCOC[C@H]2c2ncc(-c3cccc(F)c3)[nH]2)cc1,995
3,CN(C)C(=O)NC1CCC(CCN2CCN(c3cccc(Cl)c3Cl)CC2)CC1 (stereo not drawn),350
4,CCCCNC(=O)CN1CCN(c2ncc(NC(=O)c3ccc(Cl)cc3)cc2C(=O)O)CC1,1.92
5,CCC(Sc1nc2ccccc2c2nc(CCc3c(C)n[nH]c3C)nn12)C(=O)Nc1ccc(F)cc1 (stereo not drawn),205
6,Cc1c(Cl)cccc1NC(=O)CNS(=O)(=O)c1cccs1,458
7,CN1CCN(Cc2ccc(-c3ccc(C(C)(C)C#N)cc3)nc2)CC1,47.3
8,Cc1c(CN(C)c2cc(C3CC(O)C3)nc(N)n2)[nH]c2ccccc12 (stereo not drawn),44.8
9,Cc1ccc(C)c(CN2C(=O)c3ccccc3S(=O)c3ccc(C(=O)N4CCN(c5ccccc5F)CC4)cc32)c1 (stereo not drawn),932
10,N#Cc1cccc(NC(=O)c2sc3nc4c(cc3c2N)N2CCC4CC2)c1,285
11,Cn1cnc(-c2nccc3c(=O)[nH]c(OCCCC(F)(F)F)nc23)c1,78.7
12,O=C(NCCCO)c1ccc(-c2ncc3cnc(-c4cccc(F)c4)cn23)cc1,21.2
13,Cc1ccc(-n2ncc3c(NCCCn4ccnc4)ncnc32)cc1Cl,559
14,CCOC(=O)N1CCN(C(=O)Cn2sc3nc(C)cc(C)c3c2=O)CC1,19.1
15,Cc1nc(-c2ccccc2)cc([C@H]2CN3CC[C@H]2C[C@@H]3CNC2CCOCC2)n1,12.9
16,CC(C)c1nc(CN(C)C(=O)N[C@H](C(=O)N[C@@H](Cc2ccccc2)C[C@H](O)[C@H](Cc2ccccc2)NC(=O)OCc2cncs2)C(C)C)cs1,844
17,COc1ccccc1CN1CCNc2cc(Nc3ccccc3)ncc2C1,22.3
18,CNc1oc(-c2cccc3ccccc23)nc1C#N,645
19,CCCCCn1c(CCCNC(=O)c2ccccc2OC)nc2ccccc21,491
20,Cn1c(=O)c2c(-c3ccc(Cl)cc3)n(CCc3ccccc3)cc2n(C)c1=O,762
21,CCOc1ccc(NC(=O)CC2C(=O)N(c3ccc(F)cc3)C(=O)N2CCc2sccc2C)cc1 (stereo not drawn),831
22,COc1ccc2c(c1)N(C[C@H](C)CN(C)C)c1ccccc1S2,723
23,CNc1nc2c(s1)C(c1ccccc1F)CC(=O)N2 (stereo not drawn),60.3

row,Structure (SMILES),Papp [×10⁻⁶ cm/s]
1,CCOc1cc(CNc2ccc(O)cc2)ccc1OCc1ccc(Cl)cc1,187
2,COc1ccc(S(=O)(=O)N(CC(=O)Nc2ccc(C)cc2)c2ccc(C)cc2)cc1OC,663
3,O=S(=O)(Nc1ccc(-c2cccnc2)c2cccnc12)c1cccc(C(F)(F)F)c1,> 1000
4,Cc1cnc(SCc2ccccn2)nc1C1CCCN(C(=O)c2scc3c2CCCC3)C1 (stereo not drawn),> 1000
5,COc1ccc(C(=O)NC2CCCc3c2[nH]c2ccccc32)cc1OC (stereo not drawn),238
6,O=C(O)Cc1ccc2oc(-c3ccc(NC(=O)/C=C/c4ccc(Br)cc4)c(F)c3)nc2c1,405
7,CC1CCN(S(=O)(=O)c2ccc3c(ccc(=O)n3CC(=O)NCc3ccc(Cl)cc3)c2)CC1,828
8,CCc1cccc(NC(=O)C(Cc2ccccc2)NS(=O)(=O)c2cccs2)c1 (stereo not drawn),> 1000
9,CCCCOc1ccc(C(=O)N2CCC(c3n[nH]c(=O)n3-c3ccc(C)cc3)CC2)cc1,> 1000
10,CC(=O)Nc1ccc(C(=O)Nc2ccc3c(c2)N(C2CCCC2)C(=O)c2ccccc2S3)cc1,511
11,CC(C)(C)c1ccc(S(=O)(=O)N2CCC(c3ccncc3)CC2)cc1,754
12,COC(=O)c1ccc(NS(=O)(=O)c2c(C)nc3sccn3c2=O)cc1,413
13,CC(C)c1ccc(CC(=O)N2CCCc3ncc(C(=O)Nc4cccnc4)cc32)cc1,932
14,C[C@H]1CN(C(=O)c2nn(C)c3ccccc23)C[C@@H]1c1nc(-c2cccnc2)no1,739
15,O=C(O)c1cnc(-c2ccc(F)cc2)nc1-c1ccncc1,38.3
16,O=C(NC1CCCN(c2cc(-c3ccc(F)cc3)[nH]n2)C1)c1ccc2ncccc2c1 (stereo not drawn),> 1000
17,CCn1cc(C(=O)N2CCN(c3cccc(Cl)c3)CC2)c2cc(OC)c(OC)cc2c1=O,810
18,Cc1cccc(-c2noc([C@@H]3Cc4nc[nH]c4CN3C(=O)CC(C)(C)CC(=O)O)n2)c1,46.7
19,COc1ccc(OC)c(Nc2c3c(nc4ccccc24)CCC3)c1,129
20,O=C(Cc1c[nH]c2ncc(-c3ccc(Cl)cc3)cc12)NCc1cccnc1,818
21,Fc1ccc(CN2CCNc3cc(Nc4ccccc4)ncc3C2)cc1F,340
22,Fc1cccc(CN2CCNc3cc(Nc4ccccc4)ncc3C2)c1,5.74
